# Tested on: Energy system protein genes
# Experiment: DNA chip mRNA expression in yeast, energy system protein genes (Table 4)
# Format: cell-based, Saccharomyces cerevisiae S288C
# How it was run: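 Untreated cultures served as reference for log-phase S288C yeast given a growth-inhibiting, non-lethal toxicant dose for 2 h at 25° C. in YPD. Gene expression was measured on a whole-genome DNA chip from Cy3/Cy5-labeled cDNA.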
smiles,measurement,setting,value
"N#Cc1c(Cl)c(Cl)c(Cl)c(C#N)c1Cl [(9), 2,4,5,6-tetrachloro-1,3-benzenedicarbonitrile]",The level of expressed mRNA in the presence of chemical substance/The level of expressed mRNA in the absence of chemical substance,"yeast gene YJL121C, cells incubated two hours with the chemical substance",0.1
same,The level of expressed mRNA in the presence of chemical substance/The level of expressed mRNA in the absence of chemical substance,"yeast gene YJL166W, cells incubated two hours with the chemical substance",1.3
same,The level of expressed mRNA in the presence of chemical substance/The level of expressed mRNA in the absence of chemical substance,"yeast gene YJL216C, cells incubated two hours with the chemical substance",1.5
same,The level of expressed mRNA in the presence of chemical substance/The level of expressed mRNA in the absence of chemical substance,yeast gene YJR009C,1.1
same,The level of expressed mRNA in the presence of chemical substance/The level of expressed mRNA in the absence of chemical substance,yeast gene YJR048W,0.5
same,The level of expressed mRNA in the presence of chemical substance/The level of expressed mRNA in the absence of chemical substance,"yeast gene YJR121W, cells incubated two hours with the chemical substance",0.8
same,The level of expressed mRNA in the presence of chemical substance/The level of expressed mRNA in the absence of chemical substance,yeast gene YJR155W,38.2
same,The level of expressed mRNA in the presence of chemical substance/The level of expressed mRNA in the absence of chemical substance,"yeast gene YKL016C, cells incubated two hours with the chemical substance",1.3
same,The level of expressed mRNA in the presence of chemical substance/The level of expressed mRNA in the absence of chemical substance,"yeast gene YKL060C, cells incubated two hours with the chemical substance",0.3
same,The level of expressed mRNA in the presence of chemical substance/The level of expressed mRNA in the absence of chemical substance,"yeast gene YKL141W, cells incubated two hours with the chemical substance",0.8
same,The level of expressed mRNA in the presence of chemical substance/The level of expressed mRNA in the absence of chemical substance,"yeast gene YKL148C, cells incubated two hours with the chemical substance",1.7
same,The level of expressed mRNA in the presence of chemical substance/The level of expressed mRNA in the absence of chemical substance,yeast gene YKL150W,1.1
same,The level of expressed mRNA in the presence of chemical substance/The level of expressed mRNA in the absence of chemical substance,"yeast gene YKR009C, cells incubated two hours with the chemical substance",2.4
same,The level of expressed mRNA in the presence of chemical substance/The level of expressed mRNA in the absence of chemical substance,"yeast gene YKR058W, cells incubated two hours with the chemical substance, 25° C., YPD medium",1.3
same,The level of expressed mRNA in the presence of chemical substance/The level of expressed mRNA in the absence of chemical substance,yeast gene YKR097W,1.9
same,The level of expressed mRNA in the presence of chemical substance/The level of expressed mRNA in the absence of chemical substance,"yeast gene YLL041C, cells incubated two hours with the chemical substance",0.7
same,The level of expressed mRNA in the presence of chemical substance/The level of expressed mRNA in the absence of chemical substance,"yeast gene YLR038C, cells incubated two hours with the chemical substance",0.4
same,The level of expressed mRNA in the presence of chemical substance/The level of expressed mRNA in the absence of chemical substance,"yeast gene YLR134W, cells incubated two hours with the chemical substance",0.1
same,The level of expressed mRNA in the presence of chemical substance/The level of expressed mRNA in the absence of chemical substance,"yeast gene YLR258W, cells incubated two hours with the chemical substance",0.8
same,The level of expressed mRNA in the presence of chemical substance/The level of expressed mRNA in the absence of chemical substance,"yeast gene YLR284C, cells incubated two hours with the chemical substance",0.9
same,The level of expressed mRNA in the presence of chemical substance/The level of expressed mRNA in the absence of chemical substance,"yeast gene YLR295C, cells incubated two hours with the chemical substance, 25° C., YPD medium",1.4
same,The level of expressed mRNA in the presence of chemical substance/The level of expressed mRNA in the absence of chemical substance,"yeast gene YLR304C, cells incubated two hours with the chemical substance",0.1
same,The level of expressed mRNA in the presence of chemical substance/The level of expressed mRNA in the absence of chemical substance,yeast gene YLR345W,4.5
same,The level of expressed mRNA in the presence of chemical substance/The level of expressed mRNA in the absence of chemical substance,"yeast gene YLR354C, cells incubated two hours with the chemical substance",0.4
same,The level of expressed mRNA in the presence of chemical substance/The level of expressed mRNA in the absence of chemical substance,"yeast gene YLR377C, cells incubated two hours with the chemical substance",1.8
same,The level of expressed mRNA in the presence of chemical substance/The level of expressed mRNA in the absence of chemical substance,"yeast gene YLR395C, cells incubated two hours with the chemical substance",1.0
same,The level of expressed mRNA in the presence of chemical substance/The level of expressed mRNA in the absence of chemical substance,yeast gene YML087C,1.9
same,The level of expressed mRNA in the presence of chemical substance/The level of expressed mRNA in the absence of chemical substance,"yeast gene YML120C, cells incubated two hours with the chemical substance",1.3
same,The level of expressed mRNA in the presence of chemical substance/The level of expressed mRNA in the absence of chemical substance,"yeast gene YML129C, cells incubated two hours with the chemical substance",1.4
same,The level of expressed mRNA in the presence of chemical substance/The level of expressed mRNA in the absence of chemical substance,"yeast gene YMR073C, cells incubated two hours with the chemical substance",1.2
same,The level of expressed mRNA in the presence of chemical substance/The level of expressed mRNA in the absence of chemical substance,yeast gene YMR118C,9.3
same,The level of expressed mRNA in the presence of chemical substance/The level of expressed mRNA in the absence of chemical substance,"yeast gene YMR205C, cells incubated two hours with the chemical substance",0.3
same,The level of expressed mRNA in the presence of chemical substance/The level of expressed mRNA in the absence of chemical substance,"yeast gene YMR261C, cells incubated two hours with the chemical substance",1.6
same,The level of expressed mRNA in the presence of chemical substance/The level of expressed mRNA in the absence of chemical substance,"yeast gene YMR267W, cells incubated two hours with the chemical substance, 25° C., YPD medium",0.4
same,The level of expressed mRNA in the presence of chemical substance/The level of expressed mRNA in the absence of chemical substance,"yeast gene YMR323W, cells incubated two hours with the chemical substance",0.5
same,The level of expressed mRNA in the presence of chemical substance/The level of expressed mRNA in the absence of chemical substance,yeast gene YNL071W,1.1
same,The level of expressed mRNA in the presence of chemical substance/The level of expressed mRNA in the absence of chemical substance,"yeast gene YNL202W, cells incubated two hours with the chemical substance",1.3
same,The level of expressed mRNA in the presence of chemical substance/The level of expressed mRNA in the absence of chemical substance,yeast gene YNL241C,3.4
same,The level of expressed mRNA in the presence of chemical substance/The level of expressed mRNA in the absence of chemical substance,yeast gene YNL331C,42.6
same,The level of expressed mRNA in the presence of chemical substance/The level of expressed mRNA in the absence of chemical substance,"yeast gene YOL086C, cells incubated two hours with the chemical substance",0.1
same,The level of expressed mRNA in the presence of chemical substance/The level of expressed mRNA in the absence of chemical substance,yeast gene YOL165C,46.9
same,The level of expressed mRNA in the presence of chemical substance/The level of expressed mRNA in the absence of chemical substance,"yeast gene YOR142W, cells incubated two hours with the chemical substance",1.1
same,The level of expressed mRNA in the presence of chemical substance/The level of expressed mRNA in the absence of chemical substance,"yeast gene YOR178C, cells incubated two hours with the chemical substance",0.2
same,The level of expressed mRNA in the presence of chemical substance/The level of expressed mRNA in the absence of chemical substance,"yeast gene YOR388C, cells incubated two hours with the chemical substance",0.1
same,The level of expressed mRNA in the presence of chemical substance/The level of expressed mRNA in the absence of chemical substance,"yeast gene YPL031C, cells incubated two hours with the chemical substance",5.7
same,The level of expressed mRNA in the presence of chemical substance/The level of expressed mRNA in the absence of chemical substance,"yeast gene YPL061W, cells incubated two hours with the chemical substance",1.3
same,The level of expressed mRNA in the presence of chemical substance/The level of expressed mRNA in the absence of chemical substance,yeast gene YPL088W,0.6
same,The level of expressed mRNA in the presence of chemical substance/The level of expressed mRNA in the absence of chemical substance,yeast gene YPL171C,60.0
same,The level of expressed mRNA in the presence of chemical substance/The level of expressed mRNA in the absence of chemical substance,yeast gene YPL240C,3.5
same,The level of expressed mRNA in the presence of chemical substance/The level of expressed mRNA in the absence of chemical substance,"yeast gene YPL262W, cells incubated two hours with the chemical substance",1.4
same,The level of expressed mRNA in the presence of chemical substance/The level of expressed mRNA in the absence of chemical substance,"yeast gene YPL275W, cells incubated two hours with the chemical substance",0.2
same,The level of expressed mRNA in the presence of chemical substance/The level of expressed mRNA in the absence of chemical substance,"yeast gene YPR048W, cells incubated two hours with the chemical substance",4.0
same,The level of expressed mRNA in the presence of chemical substance/The level of expressed mRNA in the absence of chemical substance,"yeast gene YPR184W, cells incubated two hours with the chemical substance",1.9
